We go through 14 substances from the OligoGym collection.

HELM strings list units from the 5' end as sugar, base in round brackets, then linkage (d deoxyribose, r ribose, m 2'-O-methyl, p phosphodiester). Strings are as the collection lists them, not checked against the first reports. ss, as = sense and antisense strand; [lna] = locked nucleic acid (LNA); [hna] = hexitol nucleic acid; [s4r] = 4'-thioribose; [fl2r] = 2'-fluoro
Also: test system not given here.

The conditions of this series: siRNA.
In turn, “RNA1{[s4r](C)p.r(G)p.r(U)p.r(A)p.[s4r](C)p.r(G)p.[s4r](C)p.r(G)p.r(G)p.r(A)p.r(A)p.r(U)p.r(A)p.[s4r](C)p.r(U)p.r(U)p.[s4r](C)p.r(G)p.r(A)p.r(T)p.r(T)}|RNA2{r(U)p.r(C)p.r(G)p.r(A)p.r(A)p.r(G)p.r(U)p.r(A)p.r(U)p.r(U)p.r(C)p.r(C)p.r(G)p.r(C)p.r(G)p.r(U)p.r(A)p.r(C)p.r(G)p.r(T)p.r(T)}$$$RNA1{StrandType:ss}|RNA2{StrandType:as}$” returned a target mRNA knockdown of 93.6%.
For “RNA1{r(C)p.r(C)p.r(G)p.r(C)p.r(C)p.r(C)p.r(G)p.r(G)p.r(C)p.r(G)p.r(G)p.r(C)p.m(G)p.r(C)p.r(C)p.r(U)p.r(U)p.m(U)p.m(A)p.r(T)p.r(T)}|RNA2{m(U)p.m(A)p.r(A)p.r(A)p.r(G)p.r(G)p.r(C)p.r(G)p.r(C)p.r(C)p.r(G)p.r(C)p.r(C)p.r(G)p.r(G)p.r(G)p.r(C)p.r(G)p.r(G)p.r(T)p.r(T)}$$$RNA1{StrandType:ss}|RNA2{StrandType:as}$” the value was 85%; for “RNA1{[lna](T)p.r(C)p.r(C)p.r(A)p.r(G)p.r(A)p.r(A)p.r(C)p.r(A)p.r(A)p.r(A)p.r(G)p.r(G)p.r(A)p.r(A)p.r(A)p.r(C)p.r(G)p.r(G)p.[lna](T)p.[lna](T)}|RNA2{r(C)p.r(C)p.r(G)p.r(U)p.r(U)p.r(U)p.r(C)p.r(C)p.r(U)p.r(U)p.r(U)p.r(G)p.r(U)p.r(U)p.r(C)p.r(U)p.r(G)p.r(G)p.r(A)p.r(T)p.r(T)}$$$RNA1{StrandType:ss}|RNA2{StrandType:as}$”, 50%.
For “RNA1{r(C)p.r(G)p.r(U)p.r(A)p.r(C)p.r(G)p.r(C)p.r(G)p.r(G)p.r(A)p.r(A)p.r(U)p.r(A)p.r(C)p.r(U)p.r(U)p.r(C)p.r(G)p.r(A)p.r(T)p.r(T)}|RNA2{[s4r](U)p.[s4r](C)p.[s4r](G)p.[s4r](A)p.r(A)p.r(G)p.r(U)p.r(A)p.r(U)p.r(U)p.r(C)p.r(C)p.r(G)p.r(C)p.r(G)p.[s4r](U)p.[s4r](A)p.[s4r](C)p.[s4r](G)p.r(T)p.r(T)}$$$RNA1{StrandType:ss}|RNA2{StrandType:as}$”, the target mRNA knockdown worked out at 20%.
Regarding “RNA1{m(U)p.r(G)p.r(A)p.r(A)p.r(C)p.r(G)p.r(U)p.m(C)p.r(A)p.r(C)p.r(C)p.r(G)p.r(A)p.r(G)p.r(G)p.r(A)p.r(G)p.r(A)p.r(A)p.r(T)p.r(T)}|RNA2{r(U)p.r(U)p.r(C)p.r(U)p.r(C)p.r(C)p.r(U)p.r(C)p.r(G)p.r(G)p.m(U)p.r(G)p.r(A)p.r(C)p.r(G)p.r(U)p.r(U)p.m(C)p.r(A)p.r(T)p.r(T)}$$$RNA1{StrandType:ss}|RNA2{StrandType:as}$”, the target mRNA knockdown was 82%.
For “RNA1{r(G)p.r(A)p.m(U)p.r(A)p.r(G)p.r(G)p.r(A)p.r(A)p.r(G)p.r(G)p.r(G)p.m(G)p.r(C)p.r(U)p.r(U)p.m(C)p.r(A)p.r(G)p.r(C)p.r(T)p.r(T)}|RNA2{r(G)p.r(C)p.m(U)p.r(G)p.r(A)p.r(A)p.r(G)p.r(C)p.r(C)p.r(C)p.r(C)p.r(U)p.r(U)p.r(C)p.r(C)p.m(U)p.r(A)p.r(U)p.r(C)p.r(T)p.r(T)}$$$RNA1{StrandType:ss}|RNA2{StrandType:as}$” the value was 42%.
The substance “RNA1{r(G)p.r(A)p.r(C)p.r(G)p.[hna](U)p.r(A)p.r(A)p.[hna](A)p.r(C)p.r(G)p.[hna](G)p.r(C)p.r(C)p.[hna](A)p.r(C)p.r(A)p.r(A)p.r(G)p.r(U)p.r(U)p.d(T)}|RNA2{r(A)p.r(C)p.r(U)p.r(U)p.r(G)p.r(U)p.r(G)p.r(G)p.r(C)p.r(C)p.r(G)p.r(U)p.r(U)p.r(U)p.r(A)p.r(C)p.r(G)p.r(U)p.r(C)p.r(G)p.r(C)}$$$RNA1{StrandType:ss}|RNA2{StrandType:as}$” had a target mRNA knockdown of 81.2%.
“RNA1{r(C)p.r(U)p.r(U)p.r(C)p.r(U)p.r(U)p.r(C)p.r(G)p.r(U)p.r(C)p.r(G)p.r(A)p.r(G)p.r(A)p.r(C)p.r(C)p.r(A)p.r(U)p.r(G)p.d(T)p.d(T)}|RNA2{r(C)p.r(A)p.r(U)p.r(G)p.r(G)p.r(U)p.r(C)p.r(U)p.r(C)p.r(G)p.r(A)p.r(C)p.r(G)p.r(A)p.r(A)p.r(G)p.r(A)p.r(A)p.r(G)p.d(T)p.d(T)}$$$RNA1{StrandType:ss}|RNA2{StrandType:as}$” returned a target mRNA knockdown of 45%.
As for “RNA1{[fl2r](A)p.r(G)p.r(A)p.[fl2r](G)p.r(A)p.[fl2r](A)p.r(G)p.[fl2r](G)p.[fl2r](G)p.r(C)p.r(G)p.[fl2r](U)p.r(C)p.r(U)p.r(C)p.[fl2r](U)p.r(A)p.[fl2r](C)p.r(A)p.r(T)p.r(T)}|RNA2{r(U)p.r(G)p.r(U)p.r(A)p.r(G)p.r(A)p.r(G)p.r(A)p.r(C)p.r(G)p.r(C)p.r(C)p.r(C)p.r(U)p.r(U)p.r(C)p.r(U)p.r(C)p.r(U)p.r(T)p.r(T)}$$$RNA1{StrandType:ss}|RNA2{StrandType:as}$”, the target mRNA knockdown amounted to 75%.
The substance “RNA1{r(G)p.r(G)p.r(C)p.r(C)p.r(A)p.r(A)p.r(A)p.r(G)p.m(U)p.r(A)p.r(A)p.r(U)p.r(C)p.r(G)p.r(U)p.r(G)p.r(G)p.r(U)p.r(U)p.r(T)p.r(T)}|RNA2{r(A)p.r(A)p.r(C)p.r(C)p.r(A)p.r(C)p.r(G)p.r(A)p.r(U)p.m(U)p.r(A)p.r(C)p.r(U)p.r(U)p.r(U)p.r(G)p.r(G)p.r(C)p.r(C)p.r(T)p.r(T)}$$$RNA1{StrandType:ss}|RNA2{StrandType:as}$” had a target mRNA knockdown of 85%.
For “RNA1{r(U)p.r(C)p.r(U)p.r(C)p.r(G)p.m(U)p.m(A)p.r(A)p.r(G)p.r(G)p.r(A)p.r(C)p.r(G)p.r(A)p.m(A)p.r(A)p.m(C)p.r(G)p.r(A)p.r(T)p.r(T)}|RNA2{r(U)p.r(C)p.r(G)p.r(U)p.r(U)p.r(U)p.r(C)p.r(G)p.r(U)p.r(C)p.r(C)p.r(U)p.m(U)p.r(A)p.r(C)p.r(G)p.r(A)p.r(G)p.r(A)p.r(T)p.r(T)}$$$RNA1{StrandType:ss}|RNA2{StrandType:as}$” the value was 52%; for “RNA1{r(G)p.r(G)p.r(A)p.m(C)p.m(U)p.r(A)p.m(C)p.m(U)p.r(A)p.r(A)p.m(C)p.m(C)p.m(U)p.m(C)p.m(C)p.r(A)p.r(G)p.m(U)p.m(U)p.r(T)p.r(T)}|RNA2{r(A)p.r(A)p.m(C)p.m(U)p.r(G)p.r(G)p.r(A)p.r(G)p.r(G)p.m(U)p.m(U)p.r(A)p.r(G)p.m(U)p.r(A)p.r(G)p.m(U)p.m(C)p.m(C)p.r(T)p.r(T)}$$$RNA1{StrandType:ss}|RNA2{StrandType:as}$”, 7%.
“RNA1{r(G)p.r(A)p.r(C)p.r(G)p.[hna](U)p.r(A)p.r(A)p.[hna](A)p.r(C)p.r(G)p.[hna](G)p.r(C)p.r(C)p.[hna](A)p.r(C)p.r(A)p.r(A)p.r(G)p.[hna](U)p.[hna](U)p.d(T)}|RNA2{r(A)p.m(C)p.r(U)p.r(U)p.r(G)p.r(U)p.r(G)p.r(G)p.r(C)p.r(C)p.r(G)p.r(U)p.r(U)p.r(U)p.r(A)p.r(C)p.r(G)p.r(U)p.r(C)p.r(G)p.r(C)}$$$RNA1{StrandType:ss}|RNA2{StrandType:as}$” registered a target mRNA knockdown of 44.7%.
Regarding “RNA1{r(G)p.r(A)p.r(C)p.r(G)p.[hna](U)p.r(A)p.r(A)p.[hna](A)p.r(C)p.r(G)p.[hna](G)p.r(C)p.r(C)p.[hna](A)p.r(C)p.r(A)p.r(A)p.r(G)p.r(U)p.r(U)p.d(T)}|RNA2{r(A)p.r(C)p.r(U)p.r(U)p.r(G)p.r(U)p.r(G)p.r(G)p.r(C)p.r(C)p.r(G)p.r(U)p.r(U)p.r(U)p.r(A)p.r(C)p.r(G)p.r(U)p.[lna](C)p.[lna](G)p.r(C)}$$$RNA1{StrandType:ss}|RNA2{StrandType:as}$”, the target mRNA knockdown worked out at 77.3%.
